Measured values taken from patent EP4682145A1, “BENZOHETEROCYCLIC COMPOUND, AND PREPARATION METHOD THEREFOR AND USE THEREOF” (Cascade Pharmaceuticals, Inc., priority 2023, dated 2024).

Molecular target: T1, human FFAR1 (GPR40) (Homo sapiens, UniProt O14842)
T1 construct: Flag; expressed in transfected cells; host or cells: HEK293T
Assay: NFAT-RE-based reporter gene activity assay (Dual-Glo luciferase) for GPR40 agonistic activity in co-transfected HEK293T cells
Assay type: cell-based
Details: 4-hour treatment; for Efficacy (%): class symbols
Outline: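 HEK293T cells co-transfected with human FFAR1, NFAT-RE firefly luciferase and TK-Renilla plasmids; 24 h later treated 4 h with 10 half-log compound dilutions from 1 µM. Firefly/Renilla ratio normalised to DMSO; EC50 from four-parameter fit.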

T1 sequence (O14842 whole entry): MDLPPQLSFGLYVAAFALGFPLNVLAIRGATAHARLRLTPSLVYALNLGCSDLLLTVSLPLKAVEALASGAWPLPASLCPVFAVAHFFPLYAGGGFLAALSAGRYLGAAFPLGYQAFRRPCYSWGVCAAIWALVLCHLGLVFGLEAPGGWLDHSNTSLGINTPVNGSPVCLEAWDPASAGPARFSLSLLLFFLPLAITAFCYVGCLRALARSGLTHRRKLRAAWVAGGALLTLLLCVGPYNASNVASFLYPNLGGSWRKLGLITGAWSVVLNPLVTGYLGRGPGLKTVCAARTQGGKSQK

With `COC(=O)C(C)(C)n1cc(-c2c(C3CCN(c4cccc(OC)c4)CC3)oc3cc(C(CC(=O)O)C4CC4)ccc23)cn1` (stereo not shown) [Compound 132] the EC50 was 100 to 500 nM and the “Efficacy (%)” value was “††† (Efficacy (%) > 150)”.
For `COc1cccc(N2CCC(c3oc4cc(C(CC(=O)O)C5CC5)ccc4c3-c3nnc(-c4ccccc4)o3)CC2)c1` (stereo not shown) [Compound 133], the EC50 was 100 to 500 nM and the “Efficacy (%)” value was “† (100 ≥ Efficacy (%) > 50)”.
`COc1cccc(N2CCC(c3oc4cc(C(CC(=O)O)C5CC5)ccc4c3-c3nnc(C4(C)CC4)o3)CC2)c1` (stereo not shown) [Compound 134] was tested, and the EC50 was 100 to 500 nM and the “Efficacy (%)” value was “† (100 ≥ Efficacy (%) > 50)”.
With `COc1cccc(N2CCC(c3oc4cc(C(CC(=O)O)C5CC5)ccc4c3-c3nnc(C(C)(C)CC4CCCCC4)o3)CC2)c1` (stereo not shown) [Compound 135] the EC50 was 10 to 100 nM and the “Efficacy (%)” value was “†† (150 ≥ Efficacy (%) > 100)”.
With `COc1cccc(N2CCC(c3oc4cc(C(CC(=O)O)C5CC5)ccc4c3-c3nnc(C(C)(C)CN4CCCCC4)o3)CC2)c1` (stereo not shown) [Compound 137] the EC50 was 10 to 100 nM and the “Efficacy (%)” value was “††† (Efficacy (%) > 150)”.
In the case of `COc1cccc(N2CCC(c3oc4cc(C(CC(=O)O)C5CC5)ccc4c3-c3nnc(C45CC6CC(CC(C6)C4)C5)o3)CC2)c1` (stereo not shown) [Compound 139], the EC50 is reported as 100 to 500 nM and the “Efficacy (%)” value is reported as “†† (150 ≥ Efficacy (%) > 100)”.
In the case of `COc1cccc(N2CCC(c3oc4cc(C(CC(=O)O)C5CC5)ccc4c3-c3nnc(C4(C)CCCCC4)o3)CC2)c1` (stereo not shown) [Compound 140], the EC50 is reported as 100 to 500 nM and the “Efficacy (%)” value is reported as “††† (Efficacy (%) > 150)”.
In the case of `COc1cccc(N2CCC(c3oc4cc([C@@H](CC(=O)O)C5CC5)ccc4c3-c3nnc(C(C)(C)C)o3)CC2)c1F` [Compound 141], the EC50 is reported as at most 10 nM and the “Efficacy (%)” value is reported as “††† (Efficacy (%) > 150)”.
With `COc1ccc(F)c(N2CCC(c3oc4cc([C@@H](CC(=O)O)C5CC5)ccc4c3-c3nnc(C(C)(C)C)o3)CC2)c1` [Compound 142] the EC50 was 100 to 500 nM and the “Efficacy (%)” value was “†† (150 ≥ Efficacy (%) > 100)”.
For `CC(C)(C)c1nnc(-c2c(C3CCN(c4ccc5c(c4)OCO5)CC3)oc3cc([C@@H](CC(=O)O)C4CC4)ccc23)o1` [Compound 143], the EC50 was 10 to 100 nM and the “Efficacy (%)” value was “†† (150 ≥ Efficacy (%) > 100)”.
In the case of `COc1cccc(N2CCC(c3oc4cc([C@@H](CC(=O)O)C5CC5)ccc4c3-c3cncc(C)c3)CC2)c1` [Compound 144], the EC50 is reported as over 500 nM and the “Efficacy (%)” value is reported as “†† (150 ≥ Efficacy (%) > 100)”.
For `COc1cccc(N2CCC(c3oc4cc([C@@H](CC(=O)O)C5CC5)ccc4c3-c3ccnc(C)c3)CC2)c1` [Compound 145], the EC50 was 10 to 100 nM and the “Efficacy (%)” value was “†† (150 ≥ Efficacy (%) > 100)”.
With `COc1cccc(N2CCC(c3oc4cc([C@@H](CC(=O)O)C5CC5)ccc4c3-c3cc(C)ccn3)CC2)c1` [Compound 146] the EC50 was 100 to 500 nM and the “Efficacy (%)” value was “††† (Efficacy (%) > 150)”.
With `COc1cccc(N2CCC(c3oc4cc([C@@H](CC(=O)O)C5CC5)ccc4c3-c3cccc(C)n3)CC2)c1` [Compound 147] the EC50 was 10 to 100 nM and the “Efficacy (%)” value was “††† (Efficacy (%) > 150)”.
In the case of `COc1cccc(N2CCC(c3oc4cc(C(CC(=O)O)C5CC5)ccc4c3-c3cccc(N(CC(C)(C)C)C(C)=O)n3)CC2)c1` (stereo not shown) [Compound 148], the EC50 is reported as 100 to 500 nM and the “Efficacy (%)” value is reported as “†† (150 ≥ Efficacy (%) > 100)”.
`COc1cccc(N2CCC(c3oc4cc(C(CC(=O)O)C5CC5)ccc4c3-c3cccc(NC(=O)CC(C)(C)C)n3)CC2)c1` (stereo not shown) [Compound 149] was tested, and the EC50 was 100 to 500 nM and the “Efficacy (%)” value was “†† (150 ≥ Efficacy (%) > 100)”.
With `COc1cccc(N2CCC(c3oc4cc([C@@H](CC(=O)O)C5CC5)ccc4c3-c3cc4ccccc4[nH]3)CC2)c1` [Compound 150] the EC50 was 100 to 500 nM and the “Efficacy (%)” value was “†† (150 ≥ Efficacy (%) > 100)”.
In the case of `COc1cccc(N2CCC(c3oc4cc([C@@H](CC(=O)O)C5CC5)ccc4c3-c3cc4cccc(F)c4[nH]3)CC2)c1` [Compound 151], the EC50 is reported as 100 to 500 nM and the “Efficacy (%)” value is reported as “†† (150 ≥ Efficacy (%) > 100)”.
In the case of `COc1cccc(N2CCC(c3oc4cc([C@@H](CC(=O)O)C5CC5)ccc4c3-c3nc4ccccc4s3)CC2)c1` [Compound 152], the EC50 is reported as 100 to 500 nM and the “Efficacy (%)” value is reported as “†† (150 ≥ Efficacy (%) > 100)”.
`COc1cccc(N2CCC(c3oc4cc([C@@H](CC(=O)O)C5CC5)ccc4c3-c3nc4ccccn4n3)CC2)c1` [Compound 153] was tested, and the EC50 was 100 to 500 nM and the “Efficacy (%)” value was “††† (Efficacy (%) > 150)”.
For `COc1cccc(N2CCC(c3oc4cc([C@@H](CC(=O)O)C5CC5)ccc4c3-c3ccc4ccccc4n3)CC2)c1` [Compound 154], the EC50 was 100 to 500 nM and the “Efficacy (%)” value was “††† (Efficacy (%) > 150)”.
In the case of `COc1cccc(N2CCC(c3oc4cc([C@@H](CC(=O)O)C5CC5)ccc4c3-c3ccc4cccc(F)c4n3)CC2)c1` [Compound 155], the EC50 is reported as 10 to 100 nM and the “Efficacy (%)” value is reported as “††† (Efficacy (%) > 150)”.
`COc1ccc(F)c(N2CCC(c3oc4cc(C(CC(=O)O)C5CC5)ccc4c3-c3ccccc3)CC2)c1` (stereo not shown) [Compound 156] was tested, and the EC50 was 100 to 500 nM and the “Efficacy (%)” value was “†† (150 ≥ Efficacy (%) > 100)”.
In the case of `COc1ccc(F)c(N2CCC(c3oc4cc(C(CC(=O)O)C5CC5)ccc4c3-c3cccc(C)c3)CC2)c1` (stereo not shown) [Compound 157], the EC50 is reported as 100 to 500 nM and the “Efficacy (%)” value is reported as “††† (Efficacy (%) > 150)”.
For `COc1ccc(F)c(N2CCC(c3oc4cc([C@@H](CC(=O)O)C5CC5)ccc4c3-c3cccc(C)c3)CC2)c1` [Compound 158], the EC50 was 100 to 500 nM and the “Efficacy (%)” value was “†† (150 ≥ Efficacy (%) > 100)”.
In the case of `COc1ccc(F)c(N2CCC(c3oc4cc(C(CC(=O)O)C5CC5)ccc4c3-c3ccccc3C)CC2)c1` (stereo not shown) [Compound 159], the EC50 is reported as 100 to 500 nM and the “Efficacy (%)” value is reported as “†† (150 ≥ Efficacy (%) > 100)”.
With `COc1ccc(F)c(N2CCC(c3oc4cc(C(CC(=O)O)C5CC5)ccc4c3-c3ccc(C)cc3)CC2)c1` (stereo not shown) [Compound 160] the EC50 was 100 to 500 nM and the “Efficacy (%)” value was “†† (150 ≥ Efficacy (%) > 100)”.
In the case of `COc1ccc(F)c(N2CCC(c3oc4cc([C@@H](CC(=O)O)C5CC5)ccc4c3-c3ccc(C)cc3)CC2)c1` [Compound 161], the EC50 is reported as 100 to 500 nM and the “Efficacy (%)” value is reported as “† (100 ≥ Efficacy (%) > 50)”.
In the case of `CCc1ccc(-c2c(C3CCN(c4cc(OC)ccc4F)CC3)oc3cc(C(CC(=O)O)C4CC4)ccc23)cc1` (stereo not shown) [Compound 162], the EC50 is reported as 100 to 500 nM and the “Efficacy (%)” value is reported as “††† (Efficacy (%) > 150)”.
`COc1ccc(F)c(N2CCC(c3oc4cc(C(CC(=O)O)C5CC5)ccc4c3-c3ccc(C(C)C)cc3)CC2)c1` (stereo not shown) [Compound 163] was tested, and the EC50 was 100 to 500 nM and the “Efficacy (%)” value was “†† (150 ≥ Efficacy (%) > 100)”.
`COc1ccc(F)c(N2CCC(c3oc4cc(C(CC(=O)O)C5CC5)ccc4c3-c3cccc(C4CC4)c3)CC2)c1` (stereo not shown) [Compound 164] was tested, and the EC50 was 100 to 500 nM and the “Efficacy (%)” value was “†† (150 ≥ Efficacy (%) > 100)”.
`COc1ccc(F)c(N2CCC(c3oc4cc([C@H](CC(=O)O)C5CC5)ccc4c3-c3cccc(C(C)(C)C)c3)CC2)c1` [Compound 167] was tested, and the EC50 was 100 to 500 nM and the “Efficacy (%)” value was “†† (150 ≥ Efficacy (%) > 100)”.
In the case of `COc1ccc(F)c(N2CCC(c3oc4cc([C@H](CC(=O)O)C5CC5)ccc4c3-c3ccc(C(C)(C)C)cc3)CC2)c1` [Compound 170], the EC50 is reported as 100 to 500 nM and the “Efficacy (%)” value is reported as “†† (150 ≥ Efficacy (%) > 100)”.
`COc1ccc(F)c(N2CCC(c3oc4cc(C(CC(=O)O)C5CC5)ccc4c3-c3cccc(Cl)c3)CC2)c1` (stereo not shown) [Compound 171] was tested, and the EC50 was 100 to 500 nM and the “Efficacy (%)” value was “†† (150 ≥ Efficacy (%) > 100)”.
`COc1ccc(F)c(N2CCC(c3oc4cc(C(CC(=O)O)C5CC5)ccc4c3-c3cccc(C(F)(F)F)c3)CC2)c1` (stereo not shown) [Compound 172] was tested, and the EC50 was 100 to 500 nM and the “Efficacy (%)” value was “† (100 ≥ Efficacy (%) > 50)”.
